Assay [1] deals with T1, PTP-PEST (Homo sapiens, UniProt Q05209).
T1 construct: PTP PEST Catalytic Domain construct (Amino Acid:1-300) with 6 His tag at N-terminal; 6 His (N, cleaved yes); made in house; host or cells: Sf9 insect cells (Sf9-VECL-01), Bac-to-Bac baculovirus system
T1 sequence (Q05209 1-300): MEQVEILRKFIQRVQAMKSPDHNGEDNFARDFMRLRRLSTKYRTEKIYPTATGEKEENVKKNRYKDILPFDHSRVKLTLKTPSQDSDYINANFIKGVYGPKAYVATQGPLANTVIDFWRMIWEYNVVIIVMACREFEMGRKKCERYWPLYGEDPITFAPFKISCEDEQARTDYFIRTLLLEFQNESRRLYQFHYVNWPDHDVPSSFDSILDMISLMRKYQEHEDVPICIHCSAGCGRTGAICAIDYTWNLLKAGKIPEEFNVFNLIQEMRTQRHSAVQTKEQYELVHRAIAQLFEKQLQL
Briefly: Thermal stability of PTP-PEST by differential scanning fluorimetry and differential scanning calorimetry. As to conditions: in the presence of Auranofin; apo form shows a single unfolding event. (DSF heats the sample and reads unfolding from a dye or from intrinsic fluorescence.)

Assay [2] concerns overall PTP activity in H9C2 cells. Briefly: Overall PTP activity (orthovanadate-sensitive fraction) by pNPP assay in H9C2 cells. The assay is classed as cell-based. As to conditions: 5, 10 and 20 μmol/L for 20 min. The protocol: For heart tissue: At the end of the treatment, the left ventricle of mouse heart is gently homogenized in ice-cold RIPA buffer with Ser/Thr phosphatase inhibitors inside. Then the samples are centrifuged at 16,100×g for 10 min at 4° C. to remove the debris. Tissue extract (1 mg) is incubated with pNPP (2 mM) in reaction buffer at 37° C. for 60 min on a shaker. At the end of incubation, the reaction is terminated by addition of the same volume of 0.1 N NaOH. The released p-nitrophenolate ion is measured by spectrophotometry reading the absorbance at 405 nm. For H9C2 cell: At the end of the treatment, the cells are collected in ice-cold RIPA buffer with Ser/Thr phosphatase inhibitors inside. Then the samples are centrifuged at 16,100×g for 10 min at 4° C. to remove the debris. The cell lysate is incubated with pNPP […] in reaction buffer at 37° C. for 90 min on a shaker. The reaction is terminated by adding the same volume of 0.1 N NaOH. The released p-nitrophenolate ion is measured by spectrophotometry reading the absorbance at 405 nm. H9C2 cell lines were purchased from ATCC® organization, U.S. Cell cultures were maintained in Dulbecco modified Eagle medium (DMEM) supplemented with 10% fetal bovine serum (FBS) and 1% Penicillin/Streptomycin at 37° C. incubator in a 5% CO2 humid atmosphere.

Assay [3] deals with myocardial protein tyrosine phosphorylation. Kind of assay: Immunoblotting of heart extracts of I/R mice (anti-pTyr, p-Paxillin, p-p130cas, p-ErbB-2). The assay is classed as in vivo, mouse. The note with it: 2 mg/kg IP ten min before reperfusion; four hours post-I/R. The method, then: (§1) We anesthetized the mouse with 5% isoflurane mixed with room air until loss of sensation of pain and then maintained the mouse in anesthesia status with 2% isoflurane mixed with room air through the whole procedure. The mouse's body temperature was maintained at 37° C. by a heating pad. After the mouse was intubated, we provided artificial ventilation to the mouse with a small animal ventilator. Then the chest cavity was opened at the second intercostal space and homemade chest retractors were utilized to widen the incision. We pulled the pericardium apart carefully and exposed the left anterior descending artery (LAD). A 7-0 silk was put underneath the LAD at the position of the tip of the left auricle, a 6 mm length of PE-10 tube was put on the surface of the LAD, and then a double knot was made to occlude the blood flow of LAD. The success of ligation was confirmed by paling the anterior wall of the LV. For the reperfusion group, the LAD knot would be untied for the purpose of reperfusion after 1 hour of ischemia. For the sham operation group, all procedures were the same except for the knot that occluded the LAD flow. After the successful procedure, we left the silk in situ, closed the chest cavity and weaned the animal from the ventilator.
Hearts from mice received different treatment were gently homogenized in ice-cold RIPA buffer [250 mM Tris-HCl pH 7.4, 750 mM NaCl, detergent mix (5% NP-40, 2.5% Na-deoxycholate and 0.5% SDS), and 1× protease inhibitor cocktail (EDTA free)] containing phosphatase inhibitors (2 mM Na3VO4, 10 mM NaF, and 10 mM Na2P2O7). The homogenates were centrifuged at 16,100×g at 4° C. for 10 minutes to remove the debris. Protein concentrations were determined by Bradford protein assay. Equal amounts of protein extract from those mice were separated by SDS-PAGE on an 8% or 10% polyacrylamide gel and then transferred to PVDF membrane. Membranes were incubated with indicated primary antibody at 4° C. overnight followed by incubated with secondary antibodies for 1 hour at room temperature. The protein abundance was detected by the signal intensity of each specific band.
(A western blot detects proteins with antibodies after separation by electrophoresis.)

Assay [4] deals with I/R mice. Briefly: Serum troponin I measurement in I/R mice. The note with it: 2 mg/kg IP. The assay is classed as in vivo, mouse. The protocol: as §1
Before the mouse was sacrificed, blood was drawn from the facial vein. The blood was put in the room temperature for 30 minutes and then centrifuged at 4° C. for 15 minutes at 5000 rpm. After centrifuging, the serum is collected for troponin I measurement with troponin I ELISA kit (KT-469, Kamiya Biomedical Company) according to the manufacture's protocol.

Assay [5] deals with I/R mice. Briefly: Histopathology (H&E, Masson Trichrome) one week post-I/R in mice. The assay is classed as in vivo, mouse. The note with it: 2 mg/kg IP; one week after I/R.
Excerpt: as §1, with “(A) The representative echocardiographic images, (B) the quantification of ejection fraction, (C) the representative histopathologic […]) the quantification of infarct size were obtained from the mice with the indicated treatments for one week post-I/R (n=8). (E) The representative enlarged H&E stain obtained from mice one week post-I/R. The areas highlighted in yellow boxes (left panel) are shown by the enlarged view (right panel). (F) The representative Masson Trichrome stain obtained from mice one week post-I/R. The black arrows indicate the location of inflammation or fibrosis in the myocardium. I/R: I/R-mice treated with the vehicle control, I/R+A: […] treated with Auranofin. (B) and (D) **P<0.01. We anesthetized” for “We anesthetized”, “confirmed by […] anterior wall” for “confirmed by paling the anterior wall”

The source of these data is patent publication US20190298664A1, “METHOD AND KIT FOR MYOCARDIAL REPERFUSION, AND METHOD FOR ATTENUATING OR REDUCING MYOCARDIAL REPERFUSION INJURY” (Academia Sinica, priority 2018, published 2019).

The structures appear in SMILES notation.

In the case of `CC(=O)OC[C@H]1O[C@@H]([S-])[C@H](OC(C)=O)[C@@H](OC(C)=O)[C@@H]1OC(C)=O.CCP(CC)CC.[Au+]` [Auranofin, auranofin], the “Unfolding events of PTP-PEST (DSF and DSC)” value in assay [1] is on record as “two unfolding events”. The “Overall PTP activity in H9C2 cells” value in assay [2] is “decreased”. In assay [3], the “Decreased protein tyrosine phosphorylation in the I/R heart (anti-pTyr)” value is “reversed”; the “I/R-induced decrease of pTyr signaling in Paxillin and p130Cas” value is given as “restored”; the “I/R-suppressed phosphorylation of Tyr1248 in ErbB-2” value is “restored”. In addition, in assay [4] (4 hours post-I/R), the “Serum troponin I level” value is reported as “reduced”. For the same compound, the “Serum troponin I level” value in assay [4] (one day after reperfusion) is listed as “lower”. Further, in assay [5], the Fibrosis entry is reported as “less”; the “Infarct size (pathological study, H&E)” value is on record as “smaller”; the Infiltrating inflammatory cells result is recorded as “fewer”; the “Myocardial thinning over the injured area” value is listed as “a minor degree”.
